According to patent publication US20120270819A1, “USE OF COMPOUNDS WITH SGLT-1/SGLT-2 INHIBITOR ACTIVITY FOR PRODUCING MEDICAMENTS FOR TREATMENT OF BONE DISEASE” (SANOFI, priority 2009, published 2012):
pIC50: −log10 of the molar value.

Biological target: T1, human sodium-dependent glucose transporter 2 (SGLT2, SLC5A2) (Homo sapiens, UniProt P31639)
T1 construct: Bases 21 to 2039 correspond to the complete coding region of human SGLT2; expressed in transfected cells; host or cells: CHO-TREx cells (Invitrogen), pcDNA4/TO vector, tetracycline-induced
T1 sequence (P31639 1-672): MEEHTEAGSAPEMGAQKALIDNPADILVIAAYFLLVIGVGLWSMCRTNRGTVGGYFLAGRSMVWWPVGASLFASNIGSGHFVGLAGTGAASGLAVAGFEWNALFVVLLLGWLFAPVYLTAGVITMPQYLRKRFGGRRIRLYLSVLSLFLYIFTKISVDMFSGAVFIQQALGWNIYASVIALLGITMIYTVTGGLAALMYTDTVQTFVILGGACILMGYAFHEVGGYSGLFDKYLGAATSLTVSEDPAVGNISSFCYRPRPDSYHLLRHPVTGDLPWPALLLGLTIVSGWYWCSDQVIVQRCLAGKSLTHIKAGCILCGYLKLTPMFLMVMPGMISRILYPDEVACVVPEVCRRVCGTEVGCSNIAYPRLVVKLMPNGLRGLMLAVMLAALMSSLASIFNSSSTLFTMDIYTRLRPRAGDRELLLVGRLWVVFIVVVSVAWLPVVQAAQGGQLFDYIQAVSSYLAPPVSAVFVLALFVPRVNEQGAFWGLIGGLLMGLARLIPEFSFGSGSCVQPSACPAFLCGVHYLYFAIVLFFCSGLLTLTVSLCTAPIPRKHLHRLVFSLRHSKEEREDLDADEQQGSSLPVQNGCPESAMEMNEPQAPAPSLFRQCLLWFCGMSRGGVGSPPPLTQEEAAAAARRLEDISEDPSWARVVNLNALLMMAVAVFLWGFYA
Test: Inhibition of methyl-D-glucopyranoside uptake in CHO-TRex-hSGLT2 cells
Format: cell-based
Conditions: recombinant SGLT2; read-out: IC50 SGLT 2
From the text: Inhibition of the Transport Activity of the Human Sodium-Dependent Glucose Transporter 2 (SGLT2, SLC5A2) In Vitro
1. Cloning of an Expression Vector for Human SGLT2
The cDNA for human SGLT2 was introduced into the pcDNA4/TO vector (Invitrogen) by means of standard methods of molecular biology as described in Sambrook et al. (Molecular Cloning, A Laboratory Manual, Second Edition). […] Bases 21 to 2039 correspond to the complete coding region of human SGLT2.
2. Production of a Recombinant Cell Line with Inducible Expression of Human SGLT2
The expression vector for human SGLT2 was introduced into CHO-TREx cells (Invitrogen) by means of FuGene6 lipofection (Roche). To select single cell clones, 600 μg/ml of Zeocin (Invitrogen) was added to the cell culture medium (nutrient mixture F-12 (Ham), (Invitrogen) supplemented with 10% fetal calf serum (FBS Gold, PAA), 10 μg/ml Blasticidin S(CN Biosciences), 100 units/ml penicillin, 100 units/ml streptomycin). The functionality of the single cell clones resulting from the selection was tested via their uptake activity for radiolabeled methyl- -D-glucopyranoside. That cell clone with the highest uptake activity for methyl- -D-glucopyranoside, referred to hereinafter as CHO-TRex-hSGLT2, was selected for the further experiments and cultured further in the presence of 600 μg/ml Zeocin.
3. Measurement of the Inhibiting Action of Test Substances on the Uptake of Methyl- -D-glucopyranoside (-MDG)
CHO-TRex-hSGLT2 cells were seeded in cell culture medium in a concentration of 50 000 cells per well in Cytostar-T scintillating 96-well plates (Amersham Biosciences) and cultivated for 24 h. The expression of the recombinant human SGLT2 was induced by adding 1 μg/ml tetrazykline for a further 24 h. For -MDG uptake experiments, the cells were washed with PBS and then starved at 37° C. in starvation medium (PBS supplemented with 10% fetal calf serum) for 1 hour. […] After an incubation time of 120 min at 37° C., the reaction was stopped by adding 50 μl/well of 10 mM methyl- -D-glucopyranoside in transport assay buffer (4° C.), and the radioactivity taken up into the cells was determined in a MicroBeta Scintillation Microplate Reader (Wallac). The half-maximum inhibiting action of the test substances (IC50 value) was determined as follows:
4. […] This is the measurement in the absence of substance, measured in sodium-containing transport assay buffer.
5. […] This is the measurement in the absence of substance, measured in sodium-free transport assay buffer (140 mM choline chloride, 2 mM potassium chloride, 1 mM magnesium chloride, 1 mM calcium chloride, 10 mM HEPES/Tris, pH7.5). […]

Row | Structure (SMILES) | pIC50
1 | COc1ccc(Cc2ccccc2OC2OC(CO)C(F)C(O)C2O)cc1 (stereo not shown) [Example 1 of formula III] | 7.47
2 | COc1ccc(Cc2c(OC3OC(CO)C(F)C(O)C3O)n[nH]c2C(F)(F)F)cc1 (stereo not shown) [Example 5 of formula II] | 7.06
3 | CCc1ccc(Cc2ccccc2OC2OC(CO)C(F)C(O)C2O)cc1 (stereo not shown) [Example 20 of formula III] | 7.54
4 | CC(C)c1[nH]nc(OC2OC(CO)C(F)C(O)C2O)c1Cc1ccc(CCCC(=O)NC(CO)(CO)CO)cc1 (stereo not shown) [Example 21 of formula I] | 6.50
